Experimental findings from patent US7388016B2, “Dibenzonaphthyridine derivatives and methods of use thereof” (Wyeth, priority 2005, dated 2008) are described below.

The target in this assay is T1, PDK-1 (Homo sapiens, UniProt O15530).
T1 sequence (O15530 1-556): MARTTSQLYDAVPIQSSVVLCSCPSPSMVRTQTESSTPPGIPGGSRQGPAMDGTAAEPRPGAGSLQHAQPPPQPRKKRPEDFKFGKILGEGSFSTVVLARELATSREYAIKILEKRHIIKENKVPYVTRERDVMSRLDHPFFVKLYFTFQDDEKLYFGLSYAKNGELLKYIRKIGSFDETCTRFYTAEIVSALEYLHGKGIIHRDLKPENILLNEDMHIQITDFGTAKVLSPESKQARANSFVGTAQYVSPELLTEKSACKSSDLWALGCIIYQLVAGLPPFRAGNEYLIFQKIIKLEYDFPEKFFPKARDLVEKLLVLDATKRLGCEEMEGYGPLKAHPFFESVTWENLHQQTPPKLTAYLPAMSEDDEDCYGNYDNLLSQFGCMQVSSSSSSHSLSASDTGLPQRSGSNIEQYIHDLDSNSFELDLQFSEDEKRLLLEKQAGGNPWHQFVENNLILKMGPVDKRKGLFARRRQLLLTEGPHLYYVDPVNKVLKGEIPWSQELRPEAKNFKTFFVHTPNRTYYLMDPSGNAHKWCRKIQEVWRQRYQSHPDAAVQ
Briefly: In vitro PDK-1 inhibition ELISA assay (phosphorylation of SGK1 on Threonine 256). The assay is classed as biochemical. The settings on record: PDK-1 phosphorylates 6xHIS tagged SGK1, 17 minutes reaction, chemiluminescent detection. The procedure: The ability of illustrative Dibenzonaphthyridine Derivatives to inhibit PDK-1 in vitro can be determined using the ELISA assay as decribed in Kobayashi et al., Biochem. J. 339:319-328 (1999) and Park et al., EMBO J. 18:3024-3033 (1999).
In this in vitro assay, PDK-1 kinase phosphorylates SGK1 on Threonine 256. After 17 minutes, the reaction is quenched via the addition of urea. The 6×HIS tagged SGK1 is then bound to 96 well Ni-NTA HisSorb plates and the phosphorylated SGK1 is detected using rabbit derived anti-phospho SGK antibody as the primary antibody and HRP coupled anti-rabbit antibody as the secondary antibody. HRP is then detected using a Chemiluminescent Substrate.
On the technique in general: ELISA stands for enzyme-linked immunosorbent assay.

pIC50: −log10 of the molar value.

As a reminder, the pIC50 is −log10 of the IC50, conventionally taken in molar units. A high value points to a low IC50. Regarding `COc1cc2c(cc1NCCCN(C)C)ncc1c(N)nc3c(C)c(N)ccc3c12` [Ib-15, N^10-[3-(dimethylamino)propyl]-11-methoxy-4-methyldibenzo[c,f]-2,7-naphthyridine-3,6,10-triamine], the pIC50 is 6.01.

As to `COc1cc2c(cc1OCC1CCN(C)CC1)ncc1c(N)nc3c(C)c(N)ccc3c12` [Ib-16, 11-methoxy-4-methyl-10-[(1-methylpiperidin-4-yl)methoxy]dibenzo[c,f]-2,7-naphthyridine-3,6-diamine], the pIC50 was 6.06.

Consider `COCCOc1cc2ncc3c(N)nc4c(C)c(N)ccc4c3c2cc1OCCOC` [Ib-17, 10,11-bis(2-methoxyethoxy)-4-methyldibenzo[c,f]-2,7-naphthyridine-3,6-diamine], for which the pIC50 is 6.56.

Compound `COc1cc2c(cc1OCCCl)ncc1c(N)nc3c(C)c(N)ccc3c12` [Ib-18, 10-(2-chloroethoxy)-11-methoxy-4-methyldibenzo[c,f]-2,7-naphthyridine-3,6-diamine] had a pIC50 of 7.37.

`COc1cc2c(cc1OCCN1CC1)ncc1c(N)nc3c(C)c(N)ccc3c12` [Ib-19, 10-(2-aziridin-1-ylethoxy)-11-methoxy-4-methyldibenzo[c,f]-2,7-naphthyridine-3,6-diamine] showed a pIC50 of 6.32.

The compound `COc1cc2c(cc1OCCN(C)C)ncc1c(N)nc3c(C)c(N)ccc3c12` [Ib-20, 10-[2-(dimethylamino)ethoxy]-11-methoxy-4-methyldibenzo[c,f]-2,7-naphthyridine-3,6-diamine] had a pIC50 of 6.42. This pIC50 and that of the compound before are within 0.2 log units of each other.

Compound `COc1cc2c(cc1OCCCN(C)C)ncc1c(N)nc3c(C)c(N)ccc3c12` [Ib-21, 10-[3-(dimethylamino)propoxy]-11-methoxy-4-methyldibenzo[c,f]-2,7-naphthyridine-3,6-diamine] showed a pIC50 of 6.71. This pIC50 is 0.29 log units higher than that of the compound before.

`COc1cc2c(cc1OCCN1CCCC1)ncc1c(N)nc3c(C)c(N)ccc3c12` [Ib-22, 11-methoxy-4-methyl-10-(2-pyrrolidin-1-ylethoxy)dibenzo[c,f]-2,7-naphthyridine-3,6-diamine] had a pIC50 of 6.58.

Consider `CCN(CC)CCOc1cc2ncc3c(N)nc4c(C)c(N)ccc4c3c2cc1OC` [Ib-23, 10-[2-(diethylamino)ethoxy]-11-methoxy-4-methyldibenzo[c,f]-2,7-naphthyridine-3,6-diamine], for which the negative logarithm of the IC50 (pIC50) is 6.46.

`COc1cc2c(cc1OCCc1ccccn1)ncc1c(N)nc3c(C)c(N)ccc3c12` [Ib-24, 11-methoxy-4-methyl-10-(2-pyridin-2-ylethoxy)dibenzo[c,f]-2,7-naphthyridine-3,6-diamine] had a pIC50 of 5.54.

In turn, `COc1cc2c(cc1OCCC1CCCN1C)ncc1c(N)nc3c(C)c(N)ccc3c12` (stereo not drawn) [Ib-25, 11-methoxy-4-methyl-10-[2-(1-methylpyrrolidin-2-yl)ethoxy]dibenzo[c,f]-2,7-naphthyridine-3,6-diamine] had a pIC50 of 6.54.

As for `COc1cc2c(cc1OCCN1CCCCC1)ncc1c(N)nc3c(C)c(N)ccc3c12` [Ib-26, 11-methoxy-4-methyl-10-(2-piperidin-1-ylethoxy)dibenzo[c,f]-2,7-naphthyridine-3,6-diamine], the pIC50 was 6.49. The pIC50 values of the last two compounds are within 0.2 log units of each other.

On to `CCN(CC)CCCOc1cc2ncc3c(N)nc4c(C)c(N)ccc4c3c2cc1OC` [Ib-27, 10-[3-(diethylamino)propoxy]-11-methoxy-4-methyldibenzo[c,f]-2,7-naphthyridine-3,6-diamine], for which the pIC50 was 6.53.

`COc1cc2c(cc1OCCN1CCCCCC1)ncc1c(N)nc3c(C)c(N)ccc3c12` [Ib-28, 10-(2-azepan-1-ylethoxy)-11-methoxy-4-methyldibenzo[c,f]-2,7-naphthyridine-3,6-diamine] gave a pIC50 of 6.46.

With `COc1cc2c(cc1OCCCN1CCCCC1)ncc1c(N)nc3c(C)c(N)ccc3c12` [Ib-29, 11-methoxy-4-methyl-10-(3-piperidin-1-ylpropoxy)dibenzo[c,f]-2,7-naphthyridine-3,6-diamine], the pIC50 was 6.61. This pIC50 and that of the compound before are within 0.2 log units of each other.
